Reference: US20250092050A1, “1-AMINOBENZO[4,5]IMIDAZO[1,2-A]PYRAZINE-3-FORMAMIDE COMPOUND, AND PREPARATION THEREFOR AND USE THEREOF” (SUN YAT-SEN UNIVERSITY, priority 2022, published 2025)
Like-named read-outs stand apart in the source and are kept apart here.

Molecular target: adenosine A2A receptor (Homo sapiens, UniProt P29274)
Assay: Binding to the adenosine A2A receptor: displacement of radioligand [3H]-ZM241385 from membrane protein
Conditions: compound 10^-4 M, 1 nM [3H]-ZM241385
Description: The specific process was as follows: A membrane protein solution (60 μg/tube, containing ADA 2 mg/mL) and a radioligand 1 nM [3H]-ZM241385 were added to each tube. Different compounds with the concentration of 10^−4 M were added into the compound tubes respectively, shaken to mix uniformly, incubated at 37° C. for 30 minutes and the reaction was terminated in a water bath. Free and bound ligands were separated by suction filtration under negative pressure using GF/C glass fiber filter paper, washed three times with precooled 50 mM Tris-HCl, about 4 mL each time. Film was removed and placed upside down on the tray (i.e., with the grid side facing up), and baked for 3 minutes until dried. Dried small circular filter membrane was put into the liquid scintillation tube in sequence, and 2 mL of scintillation solution was added. [3H] count was then performed in a Multifunction Liquid Scintillation Counter. Each junction point was provided with triple tubes. and the average value was taken. Finally. data analysis was carried out to calculate the inhibition rate of the compound on the adenosine AzA receptor: […]

[1] = read-out: inhibition rate on adenosine A2A receptors (text summary of Table 1)
[2] = membrane protein 60 μg/tube, 37° C., 30 minutes, average of triple tubes, read-out: Adenosine A2A receptor inhibition rate

adenosine A2A receptor, sequence (P29274 whole entry): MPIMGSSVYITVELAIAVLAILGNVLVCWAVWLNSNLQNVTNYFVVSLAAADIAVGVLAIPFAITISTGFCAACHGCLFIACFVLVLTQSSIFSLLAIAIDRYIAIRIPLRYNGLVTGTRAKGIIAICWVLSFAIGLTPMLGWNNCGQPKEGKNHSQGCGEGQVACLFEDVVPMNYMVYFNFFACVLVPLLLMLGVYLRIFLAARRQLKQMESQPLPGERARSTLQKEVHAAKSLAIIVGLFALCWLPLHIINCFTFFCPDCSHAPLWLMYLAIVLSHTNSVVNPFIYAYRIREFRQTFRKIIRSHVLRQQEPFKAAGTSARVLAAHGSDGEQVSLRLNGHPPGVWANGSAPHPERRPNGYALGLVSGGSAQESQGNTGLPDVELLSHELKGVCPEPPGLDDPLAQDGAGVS

Compound	Adenosine A2A receptor inhibition rate (membrane protein 60 μg/tube, 37° C., 30 minutes, average of triple tubes) [%]	inhibition at 100 µM [1] [%]	inhibition at 100 µM [2] [%]
CC(NC(=O)c1cn2c(nc3ccccc32)c(N)n1)c1cccc2cccnc12 (stereo not drawn) [Compound 14w]	78.27 ± 2.31	> 70	–
CC(C)(NC(=O)c1cn2c(nc3ccccc32)c(N)n1)c1ccccn1 [Compound 14x]	–	> 70	75.3 ± 4.07
CCCCCNC(=O)c1cn2c(nc3ccccc32)c(N)n1 [Compound 14b]	–	–	71 ± 4.02
CC(NC(=O)c1cn2c(nc3ccccc32)c(N)n1)c1ccccn1 (stereo not drawn) [Compound 14u]	–	> 80	86.5 ± 1.02
CC(NC(=O)c1cn2c(nc3ccccc32)c(N)n1)c1cccc2cccnc12 (stereo not drawn) [Compound 14v]	–	–	61.6 ± 3.91
Nc1nc(C(=O)NCCO)cn2c1nc1ccccc12 [Compound 14f]	–	–	65.6 ± 4.23
